Measured values from patent publication US4322528A (priority 1979, dated 1982).
Like-named read-outs stand apart in the source and are kept apart here.

Key:
Test in all cases: whole plant or invertebrate
Housefly Adult = details: Musca domestica, read-out: Housefly Adult, Contact Spray, % control @ ppm
Tobacco Budworm Larvae = details: Heliothis virescens, foliar, read-out: Tobacco Budworm Larvae, Leaf Feed, % control @ ppm
Housefly Larvae = details: Musca domestica, soil, 168 h
[1] = system: Parathion-resistant Two-spotted Spider Mite Egg; details: Tetranychus urticae, foliar, read-out: Parathion-resistant Two-spotted Spider Mite, Egg, % control @ ppm
Cabbage Looper Larvae = details: Trichoplusia ni, foliar, read-out: Cabbage Looper Larvae, Leaf Feed, % control @ ppm
[2] = system: Hock Colorado Potato Beetle 2nd Stg. Larva; details: Leptinotarsa decemlineata, foliar, read-out: Hock Colorado Potato Beetle 2nd Stg. Larva, Leaf Feed, % control @ ppm
[3] = read-out: 7-Day Exposure Housefly Larvae Treatment, % control @ ppm
[4] = read-out: 7-Day Exposure Housefly Larvae Treatment, % control, C @ ppm (second sub-column)

| SMILES | mortality at 100 ppm (Housefly Adult) [%] | mortality at 500 ppm (Tobacco Budworm Larvae) [%] | mortality at 40 ppm (Housefly Larvae; [3]) [%] | mortality at 40 ppm [1] [%] | mortality at 40 ppm (Housefly Larvae; [4]) [%] | mortality at 500 ppm (Cabbage Looper Larvae) [%] | mortality at 500 ppm [2] [%] |
| --- | --- | --- | --- | --- | --- | --- | --- |
| ClC1=C(Cl)C2(Cl)C3c4ccccc4CC3N1C2(Cl)Cl (centres unmarked) [Ex. 5, 1-aza-4,5-benzo-7,8,9,10,10-pentachlorotricyclo[5.2.1.0^2.6]-8-decene] | 42 | 6 | 47 | 13 |  |  |  |
| CCOP(=S)(OCC)Oc1cc(C)nc(C(C)C)n1 [Diazinon, reference compound] |  |  |  |  | 37 |  |  |
| ClC1=NC(Cl)(Cl)C2(Cl)C3CC(C(Cl)C3Cl)C12Cl (centres unmarked) [Ex. 3, 4-aza-2,3,5,5,6,8,9-heptachlorotricyclo[5.2.1.0^2.6]dec-3-ene] | 83 |  |  | 31 | 67 | 26 |  |
| ClC1=C(Cl)C2(Cl)C(c3ccccc3)CN1C2(Cl)Cl (centres unmarked) [Ex. 4, 1-aza-5-phenyl-2,3,4,7,7-pentachlorobicyclo[2.2.1]-2-heptene] | 10 | 66 | 43 | 77 |  |  | 50 |
